{"source": "patent US20230372458A1", "about": "“ANTIVIRAL AGENT FOR COMBINED THERAPY OF COVID-19 (SARS-COV-2)” (priority 2020, published 2023)", "test_system": "COVID-19 (SARS-CoV-2)", "details": "lung damage by computer tomography", "note": "Like-named read-outs stand apart in the source and are kept apart here."}
{"smiles": "NC(=O)c1nc(F)cnc1O", "note": "[FPV, 6-fluoro-3-hydroxy-2-pyrazinecarboxamide]", "values": [{"measurement": "CT on Day 14: Improvement, percent of patients", "value": "(72.7%)"}, {"measurement": "CT on Day 14: No change, percent of patients", "value": "(9.1%)"}, {"measurement": "CT on Day 14: Worsening, percent of patients", "value": "(18.2%)"}, {"measurement": "CT on Day 14: Improvement, number of patients", "setting": "count of patients", "value": 8}, {"measurement": "CT on Day 14: No change, number of patients", "setting": "count of patients", "value": 1}, {"measurement": "CT on Day 14: Worsening, number of patients", "setting": "count of patients", "value": 2}, {"measurement": "CT on Day 14: Improvement, percent of patients", "setting": "listed as FVP", "value": 72.7, "unit": "%"}, {"measurement": "CT on Day 14: No change, percent of patients", "setting": "listed as FVP", "value": 9.1, "unit": "%"}, {"measurement": "CT on Day 14: Worsening, percent of patients", "setting": "listed as FVP", "value": 18.2, "unit": "%"}]}
